Data as given in ChEMBL document CHEMBL4346735, “Discovery and pharmacological evaluation of indole derivatives as potent and selective RORγt inverse agonist for multiple autoimmune conditions” (Bioorg Med Chem Lett, 2019).
Converted amounts (≈) assume the structure as drawn.

How the values were obtained:
Cytochrome P450 1A2 = target: T1, Cytochrome P450 1A2 (Homo sapiens, UniProt P05177); test: Inhibition of CYP1A2 in human liver microsomes using phenacetin as substrate preincubated for 5 mins followed by NADPH addition measured after 10 mins by LC-MS/MS analysis
T1 sequence (P05177 whole entry): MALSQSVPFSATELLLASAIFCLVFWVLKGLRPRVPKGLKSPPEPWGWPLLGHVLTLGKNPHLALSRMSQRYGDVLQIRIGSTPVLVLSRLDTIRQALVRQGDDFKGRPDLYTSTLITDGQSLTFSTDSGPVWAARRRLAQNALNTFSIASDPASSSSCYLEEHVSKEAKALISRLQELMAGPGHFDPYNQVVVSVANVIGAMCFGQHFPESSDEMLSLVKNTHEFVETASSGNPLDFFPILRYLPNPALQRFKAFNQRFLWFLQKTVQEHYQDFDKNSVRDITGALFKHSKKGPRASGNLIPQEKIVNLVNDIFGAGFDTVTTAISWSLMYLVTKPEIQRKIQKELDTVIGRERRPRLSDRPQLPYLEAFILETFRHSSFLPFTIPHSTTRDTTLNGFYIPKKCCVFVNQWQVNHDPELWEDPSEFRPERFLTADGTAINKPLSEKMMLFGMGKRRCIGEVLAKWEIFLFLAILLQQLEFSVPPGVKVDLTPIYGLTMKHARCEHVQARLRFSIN

Cytochrome P450 3A4 [1] = target: T2, Cytochrome P450 3A4 (Homo sapiens, UniProt P08684); test: Inhibition of CYP3A4 in human liver microsomes using testosterone as substrate preincubated for 5 mins followed by NADPH addition measured after 10 mins by LC-MS/MS analysis
[2] = Metabolic stability in human liver microsomes assessed as parent compound remaining at 1 uM preincubated for 5 mins followed by NADPH addition after 30 mins by LC-MS/MS analysis; assay type: ADME, Microsome; conditions: read-out: Stability
[3] = Metabolic stability in mouse liver microsomes assessed as parent compound remaining at 1 uM preincubated for 5 mins followed by NADPH addition after 30 mins by LC-MS/MS analysis; assay type: ADME, Microsome; conditions: read-out: Stability
[4] = target: T3, Nuclear receptor ROR-gamma (Homo sapiens, UniProt P51449); test: Transactivation of recombinant GAL4-DBD fused RORgammat LBD (unknown origin) expressed in HEK293T cells incubated for 18 to 24 hrs by dual-Glo luciferase assay; assay type: cell-based
T3 sequence (P51449 whole entry): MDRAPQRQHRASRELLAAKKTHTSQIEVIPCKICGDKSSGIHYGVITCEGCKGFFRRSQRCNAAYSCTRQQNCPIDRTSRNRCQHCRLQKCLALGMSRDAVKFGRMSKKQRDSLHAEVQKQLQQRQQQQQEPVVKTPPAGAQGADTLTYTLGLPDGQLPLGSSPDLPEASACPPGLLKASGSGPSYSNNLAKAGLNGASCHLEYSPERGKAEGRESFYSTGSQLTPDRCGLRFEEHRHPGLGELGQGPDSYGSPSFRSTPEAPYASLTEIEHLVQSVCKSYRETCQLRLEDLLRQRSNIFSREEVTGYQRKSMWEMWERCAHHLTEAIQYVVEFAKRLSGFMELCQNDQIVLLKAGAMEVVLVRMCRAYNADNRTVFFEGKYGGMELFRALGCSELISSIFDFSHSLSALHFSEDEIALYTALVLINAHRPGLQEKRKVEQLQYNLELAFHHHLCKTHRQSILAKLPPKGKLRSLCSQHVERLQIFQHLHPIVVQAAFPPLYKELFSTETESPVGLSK

Cytochrome P450 2C9 = Cytochrome P450 2C9 (Homo sapiens, UniProt P11712); test: Inhibition of CYP2C9 in human liver microsomes using diclofenac as substrate preincubated for 5 mins followed by NADPH addition measured after 10 mins by LC-MS/MS analysis
[5] = Metabolic stability in rat liver microsomes assessed as parent compound remaining at 1 uM preincubated for 5 mins followed by NADPH addition after 30 mins by LC-MS/MS analysis; assay type: ADME, Microsome; conditions: read-out: Stability
Cytochrome P450 2D6 = Cytochrome P450 2D6 (Homo sapiens, UniProt P10635); test: Inhibition of CYP2D6 in human liver microsomes using dextromethorphan as substrate preincubated for 5 mins followed by NADPH addition measured after 10 mins by LC-MS/MS analysis
Cytochrome P450 2C19 = Cytochrome P450 2C19 (Homo sapiens, UniProt P33261); test: Inhibition of CYP2C19 in human liver microsomes using (S)-mephenytoin as substrate preincubated for 5 mins followed by NADPH addition measured after 40 mins by LC-MS/MS analysis
Cytochrome P450 3A4 [6] = target: T2, Cytochrome P450 3A4; test: Inhibition of CYP3A4 in human liver microsomes using midazolam as substrate preincubated for 5 mins followed by NADPH addition measured after 10 mins by LC-MS/MS analysis
[7] = Solubility of the compound at pH 7.4; conditions: buffer
[8] = Solubility of the compound at pH 2.1; conditions: buffer
[9] = Solubility of the compound at pH 4; conditions: buffer
[10] = target: T3, Nuclear receptor ROR-gamma; test: Inverse agonist activity at GST-tagged RORgammat LBD (unknown origin) using fluorescein-D22 co-activator peptide as substrate incubated for 1 hr by TR-FRET assay

Sequence of Cytochrome P450 2C9 (P11712 whole entry): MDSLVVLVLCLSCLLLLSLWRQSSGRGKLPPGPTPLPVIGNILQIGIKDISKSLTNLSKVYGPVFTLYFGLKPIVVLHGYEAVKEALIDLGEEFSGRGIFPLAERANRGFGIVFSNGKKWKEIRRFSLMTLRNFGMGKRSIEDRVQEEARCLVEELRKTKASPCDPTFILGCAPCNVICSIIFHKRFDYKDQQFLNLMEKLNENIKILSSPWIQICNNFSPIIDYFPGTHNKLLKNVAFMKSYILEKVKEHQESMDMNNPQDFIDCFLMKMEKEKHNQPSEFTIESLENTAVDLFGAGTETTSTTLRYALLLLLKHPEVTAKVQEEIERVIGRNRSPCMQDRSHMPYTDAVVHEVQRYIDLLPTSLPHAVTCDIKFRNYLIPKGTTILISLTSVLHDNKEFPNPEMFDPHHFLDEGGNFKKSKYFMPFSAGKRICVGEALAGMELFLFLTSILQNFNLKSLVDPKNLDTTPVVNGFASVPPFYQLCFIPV
Sequence of Cytochrome P450 2D6 (P10635 whole entry): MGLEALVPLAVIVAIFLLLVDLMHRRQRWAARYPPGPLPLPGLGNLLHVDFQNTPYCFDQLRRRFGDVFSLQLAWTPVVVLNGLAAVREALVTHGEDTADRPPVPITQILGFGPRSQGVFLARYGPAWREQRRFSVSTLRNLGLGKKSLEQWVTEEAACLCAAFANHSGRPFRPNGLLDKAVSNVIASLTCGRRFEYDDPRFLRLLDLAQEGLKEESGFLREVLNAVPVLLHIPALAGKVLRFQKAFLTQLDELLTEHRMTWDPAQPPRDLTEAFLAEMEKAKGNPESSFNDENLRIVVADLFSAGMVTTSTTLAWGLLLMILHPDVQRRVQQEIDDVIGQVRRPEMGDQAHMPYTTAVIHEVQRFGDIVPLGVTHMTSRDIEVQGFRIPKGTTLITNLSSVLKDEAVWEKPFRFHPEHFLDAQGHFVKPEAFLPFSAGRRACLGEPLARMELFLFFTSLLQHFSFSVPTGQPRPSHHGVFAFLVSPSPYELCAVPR
T2 sequence (P08684 whole entry): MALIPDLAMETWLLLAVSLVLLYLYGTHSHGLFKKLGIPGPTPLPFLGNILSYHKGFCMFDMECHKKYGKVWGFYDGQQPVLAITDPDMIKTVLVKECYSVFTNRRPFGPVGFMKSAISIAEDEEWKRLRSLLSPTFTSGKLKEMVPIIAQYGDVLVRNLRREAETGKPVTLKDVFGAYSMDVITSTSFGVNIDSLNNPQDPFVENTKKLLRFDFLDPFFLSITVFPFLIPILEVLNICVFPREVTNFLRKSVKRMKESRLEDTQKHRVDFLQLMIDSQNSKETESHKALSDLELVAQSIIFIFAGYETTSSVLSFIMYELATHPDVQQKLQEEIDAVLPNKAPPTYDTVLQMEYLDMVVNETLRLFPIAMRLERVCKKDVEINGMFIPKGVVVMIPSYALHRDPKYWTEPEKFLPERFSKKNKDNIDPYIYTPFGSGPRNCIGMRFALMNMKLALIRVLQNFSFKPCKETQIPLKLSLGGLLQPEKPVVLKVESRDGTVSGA
Sequence of Cytochrome P450 2C19 (P33261 whole entry): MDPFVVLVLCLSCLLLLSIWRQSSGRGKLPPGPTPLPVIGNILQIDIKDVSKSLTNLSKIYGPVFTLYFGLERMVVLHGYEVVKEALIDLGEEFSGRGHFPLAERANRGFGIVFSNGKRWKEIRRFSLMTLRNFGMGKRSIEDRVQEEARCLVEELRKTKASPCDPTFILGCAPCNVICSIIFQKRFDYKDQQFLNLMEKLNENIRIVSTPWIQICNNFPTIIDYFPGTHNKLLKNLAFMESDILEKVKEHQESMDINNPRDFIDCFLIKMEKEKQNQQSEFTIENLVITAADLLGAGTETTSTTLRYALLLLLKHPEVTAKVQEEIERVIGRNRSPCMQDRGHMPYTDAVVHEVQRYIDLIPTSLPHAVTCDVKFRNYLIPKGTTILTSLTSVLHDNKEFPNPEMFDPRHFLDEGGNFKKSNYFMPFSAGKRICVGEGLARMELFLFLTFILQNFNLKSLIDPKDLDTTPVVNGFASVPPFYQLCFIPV

Structure (SMILES)	remaining at 0.5 h, 1 µM [2] [%]	remaining at 0.5 h, 1 µM [3] [%]	IC50 [4] [nM]	remaining at 0.5 h, 1 µM [5] [%]	further results
O=C(O)c1ccc(-n2cc(C(=O)c3c(Cl)cccc3C(F)(F)F)c3c(F)cccc32)cc1	79	96	38	65	IC50 (Cytochrome P450 1A2): > 50000 nM; IC50 (Cytochrome P450 3A4 [1]): 16400 nM; IC50 (Cytochrome P450 2C9): 22600 nM; IC50 (Cytochrome P450 2D6): > 50000 nM; IC50 (Cytochrome P450 2C19): 50000 nM
O=C(O)c1ccc(-n2cc(C(=O)c3c(Cl)cccc3C(F)(F)F)c3ccccc32)cc1	100	100	–	95	IC50 (Cytochrome P450 1A2): > 25000 nM; IC50 (Cytochrome P450 3A4 [1]): > 50000 nM; IC50 (Cytochrome P450 2C9): 16000 nM; IC50 (Cytochrome P450 3A4 [6]): 37000 nM; IC50 (Cytochrome P450 2D6): > 50000 nM; solubility [7]: 1470 µM (≈ 654 µg/mL); IC50 (Cytochrome P450 2C19): > 50000 nM; solubility [8]: 10 µM (≈ 4.44 µg/mL); solubility [9]: 1 µM (≈ 0.444 µg/mL)
O=C(O)c1ccc(-n2cc(C(=O)c3c(Cl)cccc3Cl)c3cccc(F)c32)c(F)c1	65	72	–	73	–
O=C(O)c1ccc(-n2cc(C(=O)c3c(Cl)cccc3Cl)c3ccccc32)c(C(F)(F)F)c1	99	85	> 3000	45	–
O=C(O)c1ccc(-n2cc(C(=O)c3c(Cl)cccc3Cl)c3ccccc32)cc1F	–	92	290	–	–
Cc1c(C(=O)c2c(Cl)cccc2Cl)c2ccccc2n1-c1ccc(C(=O)O)cc1	–	92	> 5000	–	IC50 [10]: 156 nM
Cc1cc(C(=O)O)ccc1-n1cc(C(=O)c2c(Cl)cccc2Cl)c2ccccc21	–	–	213	–	–
O=C(O)c1ccc(-n2cc(C(=O)c3c(Cl)cc(Cl)cc3Cl)c3ccccc32)cc1	–	90	107	–	–
O=C(O)c1ccc(-n2cc(C(=O)c3c(Cl)cccc3Cl)c3cccnc32)c(F)c1	100	92	32	90	IC50 (Cytochrome P450 1A2): > 50000 nM; IC50 (Cytochrome P450 3A4 [1]): > 50000 nM; IC50 (Cytochrome P450 2C9): 16000 nM; IC50 (Cytochrome P450 2D6): > 10000 nM; solubility [7]: > 2000 µM; IC50 (Cytochrome P450 2C19): > 50000 nM; solubility [8]: < 1 µM; solubility [9]: < 1 µM
Cc1cccc(Cl)c1C(=O)c1cn(-c2ccc(C(=O)O)cc2)c2c(F)cccc12	66	80	11	70	IC50 (Cytochrome P450 3A4 [1]): 27200 nM; IC50 (Cytochrome P450 2C9): 32000 nM; IC50 (Cytochrome P450 2D6): > 50000 nM; IC50 (Cytochrome P450 2C19): > 50000 nM
O=C(O)c1ccc(-n2cc(C(=O)c3ccccc3Cl)c3ccccc32)cc1	–	96	205	–	–
O=C(O)c1ccc(-n2cc(C(=O)c3c(Cl)cccc3Cl)c3cccnc32)cc1	100	100	104	100	IC50 [10]: 20 nM; solubility [7]: 407 µM (≈ 167 µg/mL); solubility [8]: 1 µM (≈ 0.411 µg/mL); solubility [9]: 3 µM (≈ 1.23 µg/mL)
Cc1cccc2c(C(=O)c3ccccc3Cl)cn(-c3ccc(C(=O)O)cc3F)c12	–	67	119	–	IC50 [10]: 8.1 nM
Cc1cccc(Cl)c1C(=O)c1cn(-c2ccc(C(=O)O)cc2F)c2ncccc12	88	93	27	73	IC50 (Cytochrome P450 1A2): > 50000 nM; IC50 (Cytochrome P450 3A4 [1]): > 50000 nM; solubility [7]: 1960 µM (≈ 803 µg/mL); IC50 (Cytochrome P450 2C19): > 50000 nM; solubility [8]: < 1 µM; solubility [9]: 1 µM (≈ 0.409 µg/mL)
Cc1cc(-n2cc(C(=O)c3c(Cl)cccc3Cl)c3ccccc32)ccc1C(=O)O	–	–	2010	–	–
O=C([O-])c1ccc(-n2cc(C(=O)c3c(Cl)cccc3Cl)c3ccccc32)cc1.[Na+]	–	–	–	–	solubility [7]: > 2000 µM; solubility [8]: 52 µM; solubility [9]: 30 µM
O=C(O)c1ccc(-n2cc(C(=O)c3c(Cl)cccc3Cl)c3ccccc32)c(F)c1F	–	100	75	–	–

Structure (SMILES)	remaining at 0.5 h, 1 µM [2] [%]	remaining at 0.5 h, 1 µM [3] [%]	IC50 [4] [nM]	remaining at 0.5 h, 1 µM [5] [%]	further results
O=C(O)c1ccc(-n2cc(C(=O)c3c(F)cc(F)cc3Cl)c3ccccc32)cc1	–	–	210	–	–
O=C(O)c1ccc(-n2cc(C(=O)c3c(Cl)cccc3C(F)(F)F)c3cccnc32)cc1	83	84	44	55	–
Cc1cccc(Cl)c1C(=O)c1cn(-c2ccc(C(=O)O)cc2F)c2cccc(F)c12	75	68	36	43	–
COc1cccc2c(C(=O)c3c(Cl)cccc3Cl)cn(-c3ccc(C(=O)O)cc3)c12	–	83	731	–	IC50 [10]: 350 nM
O=C(O)c1ccc(-n2cc(C(=O)c3c(Cl)cccc3Cl)c3cccc(Cl)c32)cc1	–	76	70	–	–
O=C(O)c1ccc(-n2cc(C(=O)c3c(F)cccc3F)c3ccccc32)cc1	92	94	445	88	–
O=C(O)c1ccc(-n2cc(C(=O)c3c(Cl)cccc3Cl)c3ccccc32)cc1C(F)(F)F	71	61	> 1000	61	–
O=C(O)c1ccc(-n2cc(C(=O)c3c(Cl)cccc3Cl)c3c(F)cccc32)c(F)c1	88	100	37	44	IC50 (Cytochrome P450 1A2): > 50000 nM; IC50 (Cytochrome P450 3A4 [1]): 8340 nM; IC50 (Cytochrome P450 2C9): 8010 nM; IC50 (Cytochrome P450 2D6): > 50000 nM; IC50 (Cytochrome P450 2C19): > 50000 nM
O=C(O)c1ccc(-n2cc(C(=O)c3c(F)cccc3Cl)c3ccccc32)cc1	100	100	199	100	IC50 (Cytochrome P450 1A2): 96600 nM; IC50 [10]: 20 nM; IC50 (Cytochrome P450 2C9): 9000 nM; IC50 (Cytochrome P450 3A4 [6]): > 100000 nM; IC50 (Cytochrome P450 2D6): > 100000 nM; IC50 (Cytochrome P450 2C19): > 100000 nM
O=C(O)c1cc(Cl)c(-n2cc(C(=O)c3c(Cl)cccc3Cl)c3ccccc32)c(Cl)c1	–	–	506	–	–
O=C(O)c1ccc(-n2cc(C(=O)c3c(Cl)cccc3Cl)c3ccccc32)cc1O	68	77	5	3	–
O=C(O)c1ccc(-n2cc(C(=O)c3c(Cl)cccc3Cl)c3cc(F)ccc32)cc1	87	82	251	76	–
Cc1cccc(Cl)c1C(=O)c1cn(-c2ccc(C(=O)O)cc2)c2cccc(F)c12	77	80	93	70	–
Cc1cccc(Cl)c1C(=O)c1cn(-c2ccc(C(=O)O)cc2F)c2ccccc12	59	84	21	46	–
O=C(O)c1ccc(-n2cc(C(=O)c3c(Cl)cccc3Cl)c3ccc(F)cc32)cc1	91	80	199	61	–
O=C(O)c1cc(F)c(-n2cc(C(=O)c3c(Cl)cccc3Cl)c3ccccc32)c(F)c1	94	75	10	30	–
O=C(O)c1ccc(-n2cc(C(=O)c3c(Cl)cccc3Cl)c3ccccc32)c(Cl)c1	76	64	124	48	–
